Assay results taken from patent US12612386B2, “Heteroaryl-triazole compounds as pesticides” (Bayer Aktiengesellschaft, priority 2020, dated 2026).

Columns and labels:
Assay type in all cases: in vivo
[1] = tested on: cattle tick larvae (Rhipicephalus microplus), strain Parkhurst, resistant against synthetic pyrethroids; assay: Rhipicephalus (Boophilus) microplus in-vitro contact test, larval cattle tick; details: 5 μg/cm^2 (=500 g/ha), after 48 hours
Protocol: Rhipicephalus (Boophilus) Microplus—In-Vitro Contact Tests Larval Cattle Tick (Strain Parkhurst, Resistant Against Synthetic Pyrethroids)
(§1) 9 mg compound is solved in 1 mL acetone and diluted with acetone to the desired concentration. 250 μL of the test solution is filled in 25 mL glass test tubes and homogeneously distributed on the inner walls by rotation and tilting on a shaking device (2 h at 30 rpm). With a compound concentration of 900 ppm, an inner surface of 44.7 cm^2 and a homogeneous distribution, a dose of 5 μg/cm^2 is achieved.
After the solvent has evaporated, each test tube is filled with 20-50 cattle tick larvae (Rhipicephalus microplus), closed with a perforated lid and incubated in a horizontal position at 85% relative humidity and 27° C. in an incubator. After 48 hours efficacy is determined. The larvae are patted on the ground of the tubes and negative geotactic behavior is recorded.
An efficacy of 100% means all larvae are dead or moribund; 0% means no larvae are dead or moribund.

[2] = tested on: larvae of the banded cucumber beetle (Diabrotica balteata); assay: Diabrotica balteata spray test; details: 168 h, 100 g/ha (=32 μg/well), after 7 days, read-out: efficacy (seedling growth)
Summary of the method: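 Efficacy is seedling survival after 7 days, where 0% means no seedlings grew and 100% means growth equal to untreated, uninfested controls. Wheat seedlings, germinated on agar for 1 day, were sprayed with the aqueous emulsifier dilution (acetone/DMF solvent) and then exposed to 10–20 banded cucumber beetle larvae.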

[3] = tested on: adult mosquitoes Aedes aegypti strain MONHEIM; assay: Aedes aegypti test (AEDSAE surface treatment & contact assay); details: 24 hours after contact, read-out: efficacy (mortality); for mortality at 4 mg/m2: surface concentration 4 mg/m^2, 30 min exposure; for mortality at 20 mg/m2: surface concentration 20 mg/m^2, 30 min exposure
Protocol: Aedes aegypti Test (AEDSAE Surface Treatment & Contact Assay)
Solvent: Aceton+2000 ppm rapeseed oil methyl ester (RME)
This solution is pipetted onto a glazed tile and after evaporation of the acetone, adult mosquitoes of the species Aedes aegypti strain MONHEIM are placed onto the dried surface. The exposure time is 30 minutes. Mortality in percent (%) is determined 24 hours after contact of the insects to the treated surface. 100% mortality means that all tested insects are dead, whereas 0% means that no insect died.

[4] = tested on: adult brown dog ticks (Rhipicephalus sanguineus); assay: Rhipicephalus sanguineus in-vitro contact test, adult brown dog ticks; details: 48 h, read-out: efficacy (ticks dead or moribund)
Protocol: Rhipicephalus sanguineus—In-Vitro Contact Tests with Adult Brown Dog Ticks
as §1
(§2) After the solvent has evaporated, each test tube is filled with 5-10 adult brown dog ticks (Rhipicephalus sanguineus), closed with a perforated lid and incubated in a lying position at room temperature and relative humidity. After 48 hours efficacy is determined. The ticks are patted on the ground of the tubes and are incubated on a heating plate at 45-50° C. for at most 5 minutes. Immotile or uncoordinated moving ticks, which are not able to escape the heat by climbing upwards, are marked as dead or moribund.
An efficacy of 100% means all ticks are dead or moribund; 0% means no ticks are dead or moribund.

[5] = tested on: fall armyworm larvae (Spodoptera frugiperda); assay: whole plant or invertebrate; details: 168 h
Summary of the method: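 Percent kill of Spodoptera frugiperda caterpillars, read 7 days after infestation of dried, spray-treated Zea mays leaf pieces. Spray preparation: compound in acetone plus dimethylformamide, diluted with emulsifier-containing water.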

[6] = tested on: green peach aphid (Myzus persicae); assay: Myzus persicae spray test (MYZUPE); details: 120 h, 100 g/ha, after 5 days
Protocol: Myzus persicae—Spray Test
• Solvent: 78.0 parts by weight acetone • 1.5 parts by weight dimethylformamide • Emulsifier: alkylarylpoly glycol ether
(§3) To produce a suitable preparation of active compound, 1 part by weight of active compound is mixed with the stated amount of solvents and is diluted with water, containing an emulsifier concentration of 1000 ppm, to the desired concentration. Further test concentrations are prepared by dilution with emulsifier containing water.
Chinese cabbage (Brassica pekinensis) leaf disks infected with all instars of the green peach aphid (Myzus persicae), are sprayed with a preparation of the active ingredient of the desired concentration.
After 5 days mortality in % is determined. 100% means all aphids have been killed and 0% means none of the aphids have been killed.
Myzus persicae—Spray Test (MYZUPE)
• Solvent: 78.0 parts by weight acetone • 1.5 parts by weight dimethylformamide • Emulsifier: alkylarylpolyglycol ether
After the specified period of time, mortality in % is determined. 100% means all aphids have been killed and 0% means none of the aphids have been killed.

[7] = tested on: larvae of the southern green stink bug (Nezara viridula); assay: whole plant or invertebrate; details: 96 h
Summary of the method: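 Percent mortality of southern green stink bug larvae was recorded at day 4, with 100% meaning all dead. The larvae were placed on barley sprayed with the test solution. That solution was prepared from acetone/dimethylformamide concentrate diluted in emulsifier-containing water (1000 ppm).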

[8] = tested on: brown planthopper (Nilaparvata lugens); assay: Nilaparvata lugens spray test; details: 96 h
Protocol: Nilaparvata lugens—Spray Test
• Solvent: 78.0 parts by weight of acetone • 1.5 parts by weight of dimethylformamide • Emulsifier: alkylarylpolyglycol ether
as §3
Rice plants (Oryza sativa) are sprayed with a preparation of the active ingredient of the desired concentration and the plants are infested with the brown planthopper (Nilaparvata lugens).
After 4 days mortality in % is determined. 100% means all planthoppers have been killed and 0% means none of the planthoppers have been killed.

[9] = tested on: adult cat fleas (Ctenocephalides felis); assay: Ctenocephalides felis in-vitro contact test, adult cat flea; details: 5 μg/cm^2 (=500 g/ha), after 48 hours
Protocol: Ctenocephalides felis—In-Vitro Contact Tests Adult Cat Flea
as §1
as §2, with “cat fleas (Ctenocephalides felis),” for “brown dog ticks (Rhipicephalus sanguineus),”, “fleas” for “ticks”, “fleas,” for “ticks,”
An efficacy of 100% means all fleas are dead or moribund; 0% means no fleas are dead or moribund.

| Compound | efficacy (larvae dead or moribund) [1] [%] | pest or weed control at 32 µg/disc, 100 g/ha [2] [%] | mortality at 4 mg/m2 [3] [%] | mortality at 20 mg/m2 [3] [%] | pest or weed control at 5 µg/cm2, 500 g/ha [4] [%] | mortality at 100 g/ha [5] [%] | mortality at 100 g/ha [6] [%] | mortality at 100 g/ha [7] [%] | mortality at 500 g/ha [7] [%] | mortality at 500 g/ha [8] [%] | efficacy (fleas dead or moribund) [9] [%] |
| --- | --- | --- | --- | --- | --- | --- | --- | --- | --- | --- | --- |
| C[C@H](NC(=O)c1cc(C(F)(F)F)cc(S(C)(=O)=O)c1)c1ncnn1-c1cc(C#N)ncn1 [I-2] | 100 | 80 | 80 to 100 | 80 to 100 |  |  |  |  |  |  |  |
| C[C@H](NC(=O)c1cc(Br)cc(Br)c1)c1ncnn1-c1cc(C#N)ncn1 [I-4] | 100 | 100 |  | 80 to 100 | 100 | 100 |  |  |  |  |  |
| Cc1nc([C@H](C)NC(=O)c2cc(Cl)cc(SC(F)(F)F)c2)n(-c2cc(C#N)ncn2)n1 [I-6] | 100 | 100 |  |  | 100 | 100 |  |  |  |  |  |
| C[C@H](NC(=O)c1cc(Cl)cc(S(=O)(=O)C(F)(F)F)c1)c1ncnn1-c1cc(C#N)ncn1 [I-7] |  | 100 |  | 80 to 100 |  | 100 | 100 | 90 | 100 | 90 |  |
| C[C@H](NC(=O)c1cc(OC(F)(F)F)cc(S(C)(=O)=O)c1)c1ncnn1-c1cc(C#N)ncn1 [I-19] |  | 100 | 80 to 100 | 80 to 100 |  | 100 | 100 | 90 | 100 |  |  |
| Cc1nc([C@H](C)NC(=O)c2cc(OC(F)F)cc(OC(F)F)c2)n(-c2cc(C#N)ncn2)n1 [I-22] | 100 | 100 |  |  |  | 100 |  |  | 100 |  |  |
| Cc1nc([C@H](C)NC(=O)c2cc(OC(F)(F)F)cc(C3CC3)c2)n(-c2cc(C#N)ncn2)n1 [I-25] |  | 100 | 80 to 100 | 80 to 100 |  | 100 |  |  | 100 |  |  |
| Cc1nc([C@H](C)NC(=O)c2cc(Br)cc(OC(F)(F)F)c2)n(-c2cc(C#N)ncn2)n1 [I-28] | 100 | 100 |  |  | 100 | 100 |  |  | 90 |  |  |
| C[C@H](NC(=O)c1cc(Cl)nc(C2(C#N)CC2)c1)c1ncnn1-c1cc(C#N)ncn1 [I-35, 2-chloro-6-(1-cyanocyclopropyl)-N-[(1S)-1-[2-(6-cyanopyrimidin-4-yl)-1,2,4-triazol-3-yl]ethyl]pyridine-4-carboxamide] | 100 | 100 |  |  |  | 100 |  |  |  |  |  |
| C[C@H](NC(=O)c1cc(OC(F)(F)F)cc(OC(F)(F)F)c1)c1nc(C2CC2)nn1-c1cc(C#N)ncn1 [I-37] | 100 | 80 |  |  |  |  |  |  |  |  |  |
| C[C@H](NC(=O)c1cc(C#N)cc(OC(F)(F)F)c1)c1ncnn1-c1cc(C#N)ncn1 [I-38] | 100 | 100 |  |  |  | 100 |  |  | 100 | 100 | 90 |
| CC(C)N(C)C(=O)c1cc(-n2ncnc2[C@H](C)NC(=O)c2cc(Br)cc(Br)c2)ncn1 [I-40] |  | 100 |  | 80 to 100 |  | 100 | 90 |  |  |  |  |
| Cc1nc([C@H](C)NC(=O)c2cc(Cl)cc(C(F)(F)F)c2)n(-c2cc(C#N)ncn2)n1 [I-41] |  | 100 | 80 to 100 |  |  | 100 | 100 |  | 90 |  |  |
| CNC(=O)c1cc(-n2ncnc2[C@H](C)NC(=O)c2cc(Br)cc(Br)c2)ncn1 [I-46] | 100 | 100 |  |  |  | 100 | 90 |  | 100 |  | 100 |
| C[C@H](NC(=O)c1cc(OC(F)F)cc(C2CC2)c1)c1ncnn1-c1cc(C(N)=O)ncn1 [I-66] | 100 | 100 |  |  |  | 100 | 90 |  | 100 |  | 90 |
| C[C@H](NC(=O)c1cc(Cl)cc(C#N)c1)c1ncnn1-c1cc(C(N)=O)ncn1 [I-125] |  | 100 |  |  |  | 100 | 70 | 100 | 100 | 100 |  |
| C[C@H](NC(=O)c1cc(C(F)(F)F)cc(C(F)(F)F)c1)c1ncnn1-c1cc(C(=O)N(C)C)ncn1 [I-129] |  | 100 |  |  |  | 100 | 100 |  | 100 | 100 |  |
| C[C@H](NC(=O)c1cc(C(F)(F)F)cc(C(F)(F)F)c1)c1ncnn1-c1cc(C(N)=O)ncn1 [I-135] | 100 | 80 |  |  | 100 | 100 |  | 100 | 100 | 100 |  |
| Cc1nc([C@H](C)NC(=O)c2cc(C(F)(F)F)cc(C(F)(F)F)c2)n(-c2cc(C(N)=O)ncn2)n1 [I-136] |  | 100 |  |  |  | 100 | 90 |  | 100 | 100 |  |
| C[C@H](NC(=O)c1cccc(S(=O)(=O)C(F)(F)F)c1)c1ncnn1-c1cc(C(N)=O)ncn1 [I-140] |  | 100 |  |  |  | 100 | 100 |  | 100 | 90 |  |
| C[C@H](NC(=O)c1cc(OC(F)(F)F)cc(C(C)(C)F)c1)c1ncnn1-c1cc(C#N)ncn1 [I-142] |  | 100 |  |  |  | 100 | 100 |  | 100 | 100 |  |
